Results published in PMC9816206 (Archives of Toxicology, 2022).

Assays:
HeLa H2B-GFP cells [1] = experiment: Analysis of mitotic figures, HeLa H2B-GFP cells cultured alone; format: cell-based, human; settings: 28 h; Las 10 µM, Rid 100 µM, Ep 160 µM; vs DMSO solvent control
Protocol: (§1) The characterization of mitotic cells in fixed cell preparations was performed as described in Baudoin and Cimini [(2018]). […] Thereafter, cells were harvested and the microscopic slides prepared as described for micronucleus analysis. The mitotic index (MI; % cells in mitosis) was assessed by counting and adding up the number of cells in the mitotic stages prophase, metaphase, anaphase and telophase in 1000 cells.
(§2) Disturbed mitoses were defined as mitotic figures deviating from the typical appearance of mitoses and were assessed in 300 mitotic cells per slide. We classified the mitotic disturbances into the following categories (Figs. 2, 3):
(§3) Metaphase: no metaphase plate arrangement, non-congression of individual chromosomes to the metaphase plate, multipolar (tripolar and more than tripolar) arrangement of chromosomes and elongated chromosomes/chromatids.
(§4) Anaphase: bridges, lagging chromosome(s), combination of bridges and lagging chromosome, and multipolar (tripolar and more than tripolar) arrangement of chromosomes.
(§5) Telophase: same analysis as for anaphase cells.
(§6) If a cell harboured more than one type of disturbance, it was added to each category (e.g. multipolar, lagging chromosome(s) and bridges).

DNA [2] = system: DNA; design: method as in Hincks et al. [1991]; settings: ref Hincks et al. [1991]; cited from earlier work
[3] = system: HeLa H2B-GFP cells co-cultured with HepG2 cells; experiment: Cytokinesis-block micronucleus (CBMN) assay, HeLa H2B-GFP cells scored in co-culture with HepG2; format: cell-based, human; settings: lasiocarpine 10 µM, riddelliine 100 µM, europine 320 µM; 28 h; vs solvent control (DMSO); n = 3
Protocol: (§7) The study of genomic damage was performed in a six-well plate in which one well consisted of only HepG2 cells, one well of only HeLa H2B-GFP cells and further wells containing both cell types in co-culture. To achieve this, 190, 000 of HeLa H2B-GFP cells per 3ml, 150,000 of HepG2 cells per 3ml and 40,000 HeLa H2B-GFP plus 150,000 HepG2 for the co-culture per 3ml were seeded and incubated overnight. As culture medium, the HepG2 cell medium was used for all cells. […] At this point, slides were coded and for each test sample micronuclei were scored in 1000 binucleated HeLa H2B-GFP cells in the co-culture and HeLa H2B-GFP cells, and in 1000 binucleated HepG2 cells in the HepG2 cell culture, at 400-fold magnification with an Eclipse 55i fluorescence microscope using a fluorescein isothiocyanate (FITC) filter (Nikon GmbH, Japan). The numbers of mononucleated cells (MN), binucleated cells (BN), trinucleated cells (TriN), and tetranucleated cells (TetraN) in 1000 cells were also scored. The cytokinesis-block proliferation index (CBPI) was calculated from that as a criterion for determining the cytotoxic effect using the following formula: CBPI=1×MN+2×BN+3×TriN+4×TetraN/MN+BN+TriN+TetraN.

HepG2 cells [4] = experiment: Analysis of mitotic figures, HepG2 cells cultured alone; format: cell-based, human; settings: 28 h; Las 10 µM, Rid 100 µM, Ep 160 µM; vs DMSO solvent control
Protocol: as §1, §2, §3, §4, §5, §6

[5] = system: HeLa H2B-GFP cells co-cultured with HepG2 cells; experiment: Analysis of mitotic figures, HeLa H2B-GFP cells of the co-culture; format: cell-based, human; settings: for mitotic index in co-culture / arrest in metaphase of mitosis (detectable as elevated mitotic index): 28 h, Las 10 µM, Rid 100 µM, Ep 160 µM; for mitotic index in co-culture: vs DMSO solvent control; for arrest in metaphase of mitosis (detectable as elevated mitotic index): vincristine 10 ng/ml (positive control)
Protocol: as §1, §2, §3, §4, §5, §6

[6] = system: cell cycle regulation and DNA damage repair; settings: transcriptomics approach; ref Abdelfatah et al. [2022]; cited from earlier work
HeLa H2B-GFP cells [7] = experiment: Cytokinesis-block micronucleus (CBMN) assay, HeLa H2B-GFP cells cultured alone; format: cell-based, human; settings: lasiocarpine 10 µM, riddelliine 100 µM, europine 320 µM; 28 h; vs solvent control (DMSO); n = 3
Protocol: as §7

HepG2 cells [8] = experiment: Cytokinesis-block micronucleus (CBMN) assay, HepG2 cells cultured alone; format: cell-based, human; settings: lasiocarpine 10 µM, riddelliine 100 µM, europine 320 µM; 28 h; vs solvent control (DMSO); n = 3
Protocol: as §7

[9] = system: HeLa H2B-GFP cells co-cultured with HepG2 cells; experiment: Micronucleus assay in co-culture after pretreatment with inhibitors of metabolic enzymes and efflux transporters; settings: then Las 10 µM, Rid 100 µM, vs no pretreatment
Protocol: Since the analysis was limited to HeLa H2B-GFP cells in these experiments, cytochalasin B (at final concentration 3 µg/ml) exposure was 20 h.
Transmembrane transporters may enhance or decrease PA-mediated effects. […] The idea was that metabolites formed in hepatocytes may not reach HeLa H2B-GFP cells to the same extent. […] Then, the co-culture was exposed to PAs for 28 h, followed by 3 µg/ml cytochalasin B for 20 h.

MRP2 efflux transporter = molecular target: T1, MRP2 efflux transporter (Homo sapiens, UniProt Q92887); experiment: MRP2 efflux transporter activity, intracellular calcein fluorescence retention; format: cell-based; settings: HepG2 cells; calcein substrate; benzbromarone 10 µM; data not shown
T1 construct: endogenous in cells; host or cells: HepG2

HSEC = settings: PAs metabolized by HepaRG human hepatocyte cells in Transwell co-culture; ref Lu et al. [2019]; cited from earlier work
V79 hamster cells = settings: metabolically incompetent V79 cells with or without human CYP450-3A4; ref Ebmeyer et al. [(2019]); cited from earlier work
DNA [10] = system: DNA; design: method as in Hadi et al. [2021]; settings: ref Hadi et al. [2021]; cited from earlier work

T1 sequence (Q92887 whole entry): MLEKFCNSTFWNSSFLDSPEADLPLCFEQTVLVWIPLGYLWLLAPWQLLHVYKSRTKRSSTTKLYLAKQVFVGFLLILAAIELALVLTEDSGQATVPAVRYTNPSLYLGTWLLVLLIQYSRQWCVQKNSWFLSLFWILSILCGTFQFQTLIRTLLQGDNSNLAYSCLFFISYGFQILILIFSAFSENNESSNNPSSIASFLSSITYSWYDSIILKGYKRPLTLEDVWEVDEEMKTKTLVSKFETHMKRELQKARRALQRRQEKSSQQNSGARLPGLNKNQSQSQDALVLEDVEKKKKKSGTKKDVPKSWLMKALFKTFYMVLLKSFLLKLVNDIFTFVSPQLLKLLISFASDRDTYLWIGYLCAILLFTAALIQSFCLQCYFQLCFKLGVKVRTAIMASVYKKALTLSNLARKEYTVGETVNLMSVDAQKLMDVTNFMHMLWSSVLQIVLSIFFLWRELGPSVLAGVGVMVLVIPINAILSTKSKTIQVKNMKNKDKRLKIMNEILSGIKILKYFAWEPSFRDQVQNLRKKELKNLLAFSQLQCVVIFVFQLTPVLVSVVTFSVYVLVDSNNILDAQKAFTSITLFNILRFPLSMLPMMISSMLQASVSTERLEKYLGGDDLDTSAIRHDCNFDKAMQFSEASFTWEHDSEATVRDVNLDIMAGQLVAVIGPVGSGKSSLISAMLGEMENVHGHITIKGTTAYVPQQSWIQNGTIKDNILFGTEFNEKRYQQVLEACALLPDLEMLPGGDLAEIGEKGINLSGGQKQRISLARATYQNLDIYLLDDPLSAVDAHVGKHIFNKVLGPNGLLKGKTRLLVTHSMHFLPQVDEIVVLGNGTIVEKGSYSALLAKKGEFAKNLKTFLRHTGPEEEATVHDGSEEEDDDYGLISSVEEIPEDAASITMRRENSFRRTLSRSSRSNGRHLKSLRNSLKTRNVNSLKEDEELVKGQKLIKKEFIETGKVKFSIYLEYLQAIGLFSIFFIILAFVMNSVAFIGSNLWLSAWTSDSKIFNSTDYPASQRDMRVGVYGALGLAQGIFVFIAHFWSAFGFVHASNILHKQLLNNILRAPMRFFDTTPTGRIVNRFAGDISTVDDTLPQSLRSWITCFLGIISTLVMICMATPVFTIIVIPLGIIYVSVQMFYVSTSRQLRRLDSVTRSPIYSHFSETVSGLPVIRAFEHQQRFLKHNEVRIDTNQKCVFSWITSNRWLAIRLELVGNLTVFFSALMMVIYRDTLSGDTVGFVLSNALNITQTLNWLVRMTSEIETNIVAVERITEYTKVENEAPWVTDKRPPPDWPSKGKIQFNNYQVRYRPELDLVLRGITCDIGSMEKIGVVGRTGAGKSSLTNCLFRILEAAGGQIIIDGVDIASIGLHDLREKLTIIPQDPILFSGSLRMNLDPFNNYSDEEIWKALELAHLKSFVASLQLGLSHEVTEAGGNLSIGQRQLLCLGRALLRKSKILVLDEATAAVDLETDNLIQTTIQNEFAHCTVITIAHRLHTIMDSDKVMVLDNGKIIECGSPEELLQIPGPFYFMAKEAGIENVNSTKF

## C=C1C/C(=C/C)C(=O)O[C@@H]2CCN3CC=C(COC(=O)[C@@]1(O)CO)[C@H]23 [riddelliine]
HeLa H2B-GFP cells [1]
  mitotic index in HeLa H2B-GFP cells cultured alone: did not cause significant alterations
DNA [2]
  DNA cross-linker potency: more potent DNA cross-linker than heliosupine
[3]
  micronucleus formation in HeLa H2B-GFP cells in the co-culture: induced micronucleus formation significantly
HepG2 cells [4]
  mitotic index in HepG2 cells: did not cause significant alterations
[5]
  mitotic index in co-culture: did not cause significant alterations
  arrest in metaphase of mitosis (detectable as elevated mitotic index): not
[6]
  interference with cell cycle regulation and DNA damage repair: interfered with cell cycle regulation and DNA damage repair
HeLa H2B-GFP cells [7]
  micronucleus formation in HeLa H2B-GFP cells cultured alone: not if cultured alone
HepG2 cells [8]
  micronucleus induction in HepG2 cells cultured alone: induced micronuclei

## CC[C@]1(O)C[C@H]2CN(CCc3c([nH]c4ccccc34)[C@@](C(=O)OC)(c3cc4c(cc3OC)N(C=O)[C@H]3[C@@](O)(C(=O)OC)[C@H](OC(C)=O)[C@]5(CC)C=CCN6CC[C@]43[C@@H]65)C2)C1 [vincristine, reference compound]
[5]
  arrest in metaphase of mitosis (detectable as elevated mitotic index): arrest in metaphase of mitosis

## C/C=C(/C)C(=O)O[C@@H]1CCN2CC=C(COC(=O)[C@@](O)([C@H](C)O)C(C)(C)O)[C@H]12 [echimidine]
[6]
  interference with cell cycle regulation and DNA damage repair: interfered with cell cycle regulation and DNA damage repair

## CCc1oc2ccccc2c1C(=O)c1cc(Br)c(O)c(Br)c1 [benzbromarone]
[9]; verapamil 50 µM, benzbromarone 10 µM or both, 24 h pretreatment, Ep 160 µM for 28 h
  lasiocarpine-, riddelliine- and europine-induced micronucleus formation in HeLa H2B-GFP cells after efflux transporter inhibitor pretreatment: significantly reduced
MRP2 efflux transporter
  activity of MRP2 efflux transporter (calcein fluorescence retention): significantly reduced

## CC(C)[C@](O)(C(=O)OCC1=CCN2CC[C@@H](O)[C@@H]12)[C@@H](C)O (stereo in doubt) [lycopsamine]
[6]
  interference with cell cycle regulation and DNA damage repair: interfered with cell cycle regulation and DNA damage repair

## CC(=O)N1CCN(c2ccc(OCC3COC(Cn4ccnc4)(c4ccc(Cl)cc4Cl)O3)cc2)CC1 (centres unmarked) [ketoconazole]
[9]; ketoconazole 1 µM 24 h pretreatment, Ep 320 µM for 28 h
  lasiocarpine-, riddelliine- and europine-induced micronucleus formation after CYP450-3A4 inhibitor pretreatment: significantly reduced

## C=C/C1=C/[C@H](C)[C@](C)(OC(C)=O)C(=O)OC/C2=C/CN(C)CC[C@@H](OC1=O)C2=O [clivorine]
HSEC
  cytotoxicity in HSEC: concentration-dependent cytotoxicity

## C/C=C(/C)C(=O)O[C@H]1CCN2CC=C(COC(=O)[C@@](O)([C@H](C)OC)C(C)(C)O)[C@H]12 [lasiocarpine]
[6]
  interference with cell cycle regulation and DNA damage repair: interfered with cell cycle regulation and DNA damage repair
V79 hamster cells
  genotoxicity in V79 hamster cells: only genotoxic in metabolically incompetent V79 hamster cells if they had been genetically engineered to harbour human CYP450-3A4

## C[C@H]1C(=O)O[C@@H]2CCN3CC=C(COC(=O)[C@](C)(O)[C@]1(C)O)[C@H]23 [monocrotaline]
HSEC
  cytotoxicity in HSEC: concentration-dependent cytotoxicity
[6]
  interference with cell cycle regulation and DNA damage repair: interfered with cell cycle regulation and DNA damage repair

## COC(C)C(O)(C(=O)OCC1=CCN2CCC(O)C12)C(C)(C)O (centres unmarked) [europine]
HeLa H2B-GFP cells [1]
  mitotic index in HeLa H2B-GFP cells cultured alone: no change
DNA [10]
  induction of DNA cross-links: did not
[3]
  micronucleus formation in HeLa H2B-GFP cells in the co-culture: induced micronucleus formation significantly
HepG2 cells [4]
  mitotic index in HepG2 cells: significantly decreased
[5]
  mitotic index in co-culture: significantly decreased
  arrest in metaphase of mitosis (detectable as elevated mitotic index): not
[5]; in 300 mitotic cells, Ep 160 µM compared with Las 10 µM and Rid 100 µM, concentrations causing a similar number of micronuclei
  ana-/telophase bridges: less ana-/telophase bridges than the two diesters
HeLa H2B-GFP cells [7]
  micronucleus formation in HeLa H2B-GFP cells cultured alone: not if cultured alone
HepG2 cells [8]
  micronucleus induction in HepG2 cells cultured alone: induced micronuclei
